Test results: a melting point compilation (Tetko et al.; mined from patent text by program, amines drawn as free bases though some values may be those of a salt)

Row | Compound | melting point [°C]
1 | NS(=O)(=O)c1ccc(-c2[nH]c3ccc(Cl)cc3c2-c2ccccc2)cc1 | 297 to 299
2 | O=C(NCCN1CCOCC1)Oc1cccc(C2CCCN2Cc2ccccc2)c1 (stereo unspecified) | 74 to 77
3 | Cc1[nH]c(=O)n(-c2cc(C(=O)OC(C)C)c(Cl)cc2F)c(=O)c1Br | 187 to 189
4 | COc1cc(S(N)(=O)=O)cc(C(=O)Cl)c1OC | 153
5 | C=C(C)c1cc(Br)c(Oc2nc(C)nc(N3CCOCC3)n2)c(OC)c1 | 63 to 67
6 | Cn1c(N)c2ncn(C3OC(CO)C(O)C3O)c2nc1=O (stereo unspecified) | 262 to 263
7 | O=C(O)c1nc(I)c2cc(Cc3ccc(F)cc3)cnc2c1OCc1ccccc1 | 132 to 134
8 | CN(CCc1ccccc1)C(=O)Cn1cc(C=CC(=O)N2CCCC2)c2cc(OCc3ccccc3)ccc21 | 185 to 187
9 | Cc1nc2c(N)nc3cc(OCc4ccccc4)ccc3c2n1CC(C)C | 172
10 | COc1cccc(Oc2c(NS(=O)(=O)c3ccc(C(C)(C)C)cc3)ncnc2OCc2ccccn2)c1 | 206 to 208
11 | O=C1OC(CCCO)C(c2ccccc2)=C1O (stereo unspecified) | 148 to 150
12 | CCC(CC)/C(N)=C(\C#N)C(=O)OC(C)C | 140
13 | CCCCN(CCCC)CCCOc1ccc(-c2cn3cccc(C)c3n2)cc1OC | 127 to 130
14 | Fc1ccc(C#CCCC#Cc2ccccn2)cc1 | 68 to 69
15 | CC(C)(C)c1cc(C=Cc2ccccc2NC(=O)NC23CC4CC(CC(C4)C2)C3)cc(C(C)(C)C)c1O | 205 to 211
16 | CC(C)Cn1c(CCCCNC(=O)c2ccccc2)nc2c(N)nc3ccccc3c21 | 95 to 101
17 | CC(C)(C)CC(C)(C)c1ccc(OCCOC(=O)c2ccc(Nc3nc(Cl)nc(Cl)n3)cc2)cc1 | 249 to 251
18 | Cc1ccc(C2COc3c(C)c(C)c(Br)c(C)c32)nc1 (stereo unspecified) | 105 to 106
19 | NCCNc1cnnc(N)n1 | 186 to 191
20 | Cc1ccc(-c2cccc3c2CC(CNC(=O)OCc2ccccc2)O3)cc1 (stereo unspecified) | 134 to 136
21 | O=C(Cc1ccccc1)N[C@@H](Cc1ccc(OCCc2coc(-c3ccccc3)n2)cc1)C(=O)O | 146 to 151

Row | Compound | melting point [°C]
22 | COc1ccc(-c2c(Cl)c(CN3C(=O)CCC3=O)nc3sc4c(c23)CC(C)(C)C(=O)C4)cc1 | 222 to 224
23 | CCCCCCNC(=O)OCCCCCCNC(=O)OC1CCN(C(=O)Oc2ccc(C3CCCCC3)cc2)CC1 | 94 to 96
24 | O=S(=O)(c1ccc(Cl)cc1)C1(c2nnnn2Cc2ccccc2)CCCCC1 | 154 to 155
25 | CCCn1cc(C(=O)O)c2ccc(Cl)cc21 | 179 to 180
26 | N#Cc1ccc(Cn2c3cc(O)c(O)cc3c3c(Br)cc(O)c(O)c32)cc1 | > 260
27 | COCCN1C(=O)C(C)(C)C(=O)Nc2ccc(C#N)cc21 | 247 to 248
28 | CCCCCCCC(=O)Oc1c(OC)c(OC)c(OC(=O)CCCCCCC)c2cc(Cl)ccc12 | 74 to 75
29 | CCCCNS(=O)(=O)CC(O)(CCCC)C(O)C(N)CC1CCCCC1 (stereo unspecified) | 164 to 165
30 | Cc1c(-c2ccc(O)cc2)n(Cc2ccc(OCCN3CCCCC3)cc2)c2ccc(O)cc12 | 214 to 217
31 | COC(=O)C1OC(Oc2ccc(C=O)cc2[N+](=O)[O-])C(OC(C)=O)C(OC(C)=O)C1OC(C)=O (stereo unspecified) | 180 to 182
32 | CCCC(c1ccc(C(=O)O)cc1)[Si]1(C)O[Si](C)(C)O[Si](C)(C)O[Si](C)(C)O1 (stereo unspecified) | 72 to 78
33 | Cc1cc(OC[C@@H]2CCC(=O)N2)cc(C)c1-c1cccc2c1OC[C@H]2Nc1ccc2c(c1)OC[C@H]2CC(=O)O | 161
34 | Cc1cc(C)n(CC(C)C)c(=O)c1C#N | 126 to 128
35 | COC(=O)[C@@H]1COC(=S)N1C(C)=O | 68 to 68.4
36 | CC(=O)Oc1ccc(-c2[nH]c3ccc(Cl)cc3c2-c2ccc(S(C)(=O)=O)cc2)cc1 | 248 to 250
37 | Cn1c(O)nc2cc3c(cc21)C(C)(C)C(=O)N3 | 364 to 367
38 | CC(=NNC(=O)c1ccc([N+](=O)[O-])cc1)c1ccncc1 | 251
39 | Nc1c(Br)cc(F)c(Cl)c1F | 62
40 | COc1ncnc2ccsc12 | 92 to 94
41 | Cc1cc(-c2nc3ccccc3c(=O)n2-c2ccc(Br)cc2)ccc1OCCO | 92 to 93

Now from value to compound:

Row | melting point [°C] | Compound
42 | 149 to 150 | Cc1c(C)c2c(c(C)c1NS(=O)(=O)CCCC(F)(F)F)C(c1ccc(C(C)C)cc1)CO2 (stereo unspecified)
43 | 105 to 107 | CC(C(=O)N1CCOCC1)N1CCN(c2ccccc2)CC1 (stereo unspecified)
44 | 194 to 195 | O=c1cc(N2CCOCC2)oc2ccc(Cl)cc12
45 | 137 to 141 | COCc1c(S(C)(=O)=O)ccc(C(=O)O)c1Cl
46 | 114 to 115 | CC(C)(C)c1nnc(-c2ccccn2)[nH]c1=O
47 | 155 to 160 | COc1ccc(C=CCN2CCc3nc(N)sc3CC2)cc1
48 | 146 to 148 | CC1(Cn2nc(-c3ccc(OC(F)(F)F)cc3)oc2=O)Cn2cc([N+](=O)[O-])nc2O1 (stereo unspecified)
49 | 265 to 266 | COc1cc2nc(N3CCc4ccc(N)cc4C3)nc(N)c2cc1OC
50 | 195 to 196 | Cn1nc(-c2cc(C=C(Cl)C(=O)O)c(Cl)cc2F)c(Cl)c1C(F)(F)F
51 | 218 to 222 | O=C(O)CN1CC(=O)NC1=NN=Cc1ccccc1
52 | 108 | C[C@@H](S[C@H]1CO[C@H](c2ccc(C(=O)Nc3nccs3)cc2)OC1)[C@](O)(Cn1cncn1)c1ccc(F)cc1F
53 | 158 to 160 | COCCOCC(=O)Nc1ccnn1-c1c(Cl)cc(C(F)(F)F)cc1Cl
54 | 110 to 111 | Cc1cc(Cl)c2cc(F)c(OCc3ccccc3)cc2n1
55 | 115 to 118 | CCCN1C(=O)CN=C(N2CCCCCC2)c2ccccc21
56 | 115 to 117 | O=C(CCl)N(c1ccccc1)c1cccc(F)c1
57 | 219 | CNNc1ncn(-c2ccccc2)c(=O)n1
58 | 116 to 118 | Cc1cccc(NCCC(N)=S)c1C
59 | 332 to 334 | CCn1cc(C(=O)O)c(=O)c2c1SC(=NO)C2
60 | 247 | O=C1CC(c2cccc(-n3ccnc3)c2)=Nc2cc(O)c(C#Cc3ccc(F)cc3)cc2N1
61 | 168 | Cc1c(CCl)nc2c(NC(=O)C(C)(C)C)cccn12

Row | melting point [°C] | Compound
62 | 132 to 134 | CC(C)(C)NC(=O)[C@@H]1[C@@H](OC(=O)c2ccccc2)CCN1C(=O)OC(C)(C)C
63 | 236 to 241 | CN(C(=O)CN1C(=O)c2ccccc2C1=O)c1ccc(Cl)c(CO)c1Cl
64 | 189 to 190 | CCCn1cncc1CSc1nc2ccc([N+](=O)[O-])cc2[nH]1
65 | 81 to 82 | CCOC(=O)Cc1ccc2oc(-c3ccc(Cl)cc3)nc2c1
66 | > 290 | Cn1ncc(C(=O)O)c1C(=O)Nc1ccn2nc(-c3cccc(F)n3)nc2c1
67 | 110 to 125 | COC(=O)c1ccc(CCC(C=Cc2ccc(O)c(OC)c2)=NO)o1
68 | 150 to 152 | NC(=O)c1cccc(-c2ccc(Oc3ccc(F)cc3)cc2)n1
69 | 206 to 208 | O=C(NCc1ccccc1)Nc1ccc(Cl)cc1
70 | 115 to 119 | CN(C(=O)c1cccc(C=O)c1)c1cccc(F)c1
71 | 143 to 145 | CCC(=O)N(CCc1ccccc1)C1CCc2c(cccc2NC(C)=O)C1 (stereo unspecified)
72 | 171 | Cc1cc2c3c(c1)c1c(n3C(c3ccccc3)CO2)CCCC1=O (stereo unspecified)
73 | 93 | CC(C)(C)OC(=O)Nc1ccc(-c2cccc(F)c2F)cc1[N+](=O)[O-]
74 | 249 to 252 | Cn1cc2c3c(c(F)cc2n1)CCC3=CC#N
75 | 249 to 250 | NC(=O)c1ccc(N2CCN(Cc3cn4ccccc4n3)CC2)cc1
76 | 202 to 204 | N#Cc1c(N2CCCC2)cc(-c2ccccc2)c2c1-c1ccccc1C2=O
77 | 217 to 219 | O=C1c2cccnc2N(N2CCCCCC2)C2=NCCN12
78 | 121 to 123 | CCNC(=O)c1c(Cl)cccc1C(C)(C)C
79 | 69 to 72 | CCCc1sc(-c2nccs2)c2c1C(=O)CC(C)(C)C2
80 | 132 to 135 | CCN1CCCC1CNC(=O)c1c(C)[nH]c2ccccc12 (stereo unspecified)
81 | 98.5 to 99.5 | Cc1cccc2c1SC1(CCOC1=O)C2=O (stereo unspecified)

Row | melting point [°C] | Compound
82 | 172 | CCNC1=NN(c2cccc(C(F)(F)F)c2)CC1
83 | 238 | Cn1c2c(n(C)c1=O)CC(=NNC(=N)N)C=C2
84 | 215 to 220 | O=C1CC2(Cc3cc4ccccc4n3C2)C(=O)N1 (stereo unspecified)
85 | 260 to 262 | O=C(Nc1c[nH]nc1C(=O)NCCNc1ccccn1)c1ccccn1
86 | 182 to 184 | COC(=O)C1=C(NC(=O)Nc2ccccc2)CSC1
87 | 130 to 131 | Cc1ccc(Cn2[nH]c(N)cc2=O)cc1Cl
88 | 165 to 168 | COc1cc(N)c(Cl)cc1C(=O)NCC1CCN(CCCCNC(=O)c2ccccc2)CC1
89 | 263 | COc1ccc(S(=O)(=O)N2C(=O)C(c3ccccc3OC)(N3CCc4ccccc4[C@H]3C(=O)N(C)C)c3cc(Cl)ccc32)c(OC)c1 (stereo partly specified)
90 | 111 to 115 | CNC1=NN(C(=O)c2cccc(C(F)(F)F)c2)C(C)(C)S1
91 | 134 | O=C(Nc1ccc(C2CCN(Cc3ccccc3)CC2)cc1)c1ccccc1-c1ccc(C(F)(F)F)cc1
92 | 113 to 114 | CCOC(=O)C1=C(C)N(C(C)=O)C(c2csc(C)n2)=NC1c1cccc(C)c1 (stereo unspecified)
93 | 105 to 107 | CCOC(=O)C(NS(=O)(=O)c1ccc(C)cc1)C1CCOC1C#N (stereo unspecified)
94 | 141 to 144 | COC1=NS(=O)(=O)N(Cc2ccccc2)C(=O)N1
95 | 132 to 133 | CN1C(=NC(=O)c2ccc(F)cc2)C(C(F)(F)F)(C(F)(F)F)NC1c1ccc(F)cc1 (stereo unspecified)
96 | 30 | CC(C)(C)c1cc(Cc2c(S)ccc3ccccc23)cc(C(C)(C)C)c1O
97 | 285 | CCOC(=O)N1CCCc2nc3ccccc3c(O)c2C1
98 | 148 to 150 | COC(=O)C(=O)c1cn(CCO)c2ccc(OCc3ccccc3)cc12
99 | 239 to 242 | CCCOc1ccccc1-c1cc(C)c(C(N)=O)c(=O)[nH]1
100 | 219 to 220 | CN1CCN(c2cc(F)cc3c(=O)cc(C(=O)Nc4ccc(N5CCN(C(=O)OC(C)(C)C)CC5)cc4)oc23)CC1
101 | 134 to 135 | CC(C)(C)C(=O)OCNc1nc(OCc2ccc(F)cc2)ncc1F
